Reference: article PMC4931907 (eLife, 2016)
Read-outs that look alike come from different tables or passages of the source.

Key:
AML1-ETO fusion protein = assay: AML1-ETO K24/K43 acetylation in Kasumi-1 cells (immunoprecipitation, Western blot); assay type: cell-based, human; conditions: Kasumi-1, 24 hr; salicylate 4 or 8 mM, diflunisal 100 or 200 μM
Source text: (§1) Previously, we reported that the leukemogenicity of the AML1-ETO fusion protein, generated by a t(8;21) translocation in acute myelogenous leukemia, is regulated by p300-mediated acetylation of lysine 43 of the fusion protein ([Wang et al., 2011]).
(§2) Figure 4. […] (B) Kasumi-1 and AE9a cells treated or not with salicylate were counted by trypan-blue exclusion under light microscopy. […] The percentage of sub-G1 cells is shown. […] Cells were counted by trypan-blue exclusion under light microscopy. […] DOI: http://dx.doi.org/10.7554/eLife.11156.011
AML1-ETO protein in the lysate was immunoprecipitated with an anti-ETO antibody (Santa Cruz Biotechnology). Antibodies against AML1 and acetylated AML1-ETO K24/K43 (generated in the Nimer lab) were used for Western blotting.

[1] = tested on: histone acetylation (H2BK12/K15) in HEK293T cells; assay: Site-specific histone acetylation in HEK293T cells by Western blot; assay type: cell-based; conditions: for Deacetylation of specific histone residues: Western blot; for IC50: Homo sapiens, HEK-293T
Procedure: To determine whether salicylate induces histone deacetylation directly in cells, we treated HEK293T cells with various concentrations of salicylate.
Figure 2. Salicylate inhibits specific lysine acetylation of histone and nonhistone proteins independently of AMPK activation. […] HEK293T cells were treated with the indicated concentrations of sodium salicylate for 24 hr. Site-specific histone acetylation was detected by Western blot with specific antisera. Bands were quantified with Image J software. Acetylation was normalized to that of untreated cells and plotted. Representative results are shown in Supplementary Figure 1. Experiments are repeated and error bars indicate SEM. […] HEK293T cells were transfected with increasing amounts of expression vectors for p300 or F1504A or PCAF, treated with sodium salicylate for 24 hr, and analyzed by Western blotting analysis with an antiserum specific for acetyl histone H2BK12/K15. Bands were quantified with Image J software. Acetylation was normalized to that of untreated control. Average levels of relative acetylation are plotted and error bars indicate SEM. Representative results are shown in Supplementary Figure 2—figure supplement 2. (E) IC50 values generated from all curves in panel (B) and (D) were plotted against the amount of plasmid transfected (p300 or PCAF). (F), (G) HEK293 T cells were transfected with expression vectors for p300 and NF-κB p65 (F) or p53 (G), treated with salicylate for 24 hr, and analyzed by Western blot with specific antibodies against acetyl NF-κBK310 (F) or acetyl p53K382 and acetyl H2BK12/15 (G). Compound C (10 μM), a specific AMPK inhibitor, was added to salicylate-treated cells for 24 hr before Western blot (G). KR, p65 K310R mutant DOI: http://dx.doi.org/10.7554/eLife.11156.005 Figure 2—figure supplement 1. Salicylate induces histone deacetylation in HEK293T cells HEK293T cells were treated with sodium salicylate as indicated for 24 hr, immediately lysed in Laemmli buffer, and then subjected to western blot analysis with the indicated antibodies. Histones H2A, H2B, H3 and H4 were used as input loading controls. Experiments are repeated five times and representative data are shown. DOI: http://dx.doi.org/10.7554/eLife.11156.006 [drawing 2] Figure 2—figure supplement 2. Salicylate-induced deacetylation of histone H2B can be rescued by overexpression of p300, but not PCAF, in a dose-dependent manner. (A) Overexpression of p300 but not PCAF specifically leads to hyperacetylation of histone H2B. […] H2B acetylation was measured by western blot and the specified antibodies. (B) Overexpression of p300 but not PCAF rescued salicylate-induced H2B deacetylation in a dose-dependent manner. […] H2B acetylation was measured by Western Blot and the specified antibodies. […]

acetyl p53K382 = assay: Acetylation of overexpressed p53 in HEK293T cells, Western blot; assay type: cell-based; conditions: HEK293T transfected with p300 and p53, 24 hr
Source text: Figure 2.

Kasumi-1 cells = assay: Growth and apoptosis of Kasumi-1 cells (trypan blue, annexin V/7AAD); assay type: cell-based, human; conditions: for Apoptosis, annexin V/7AAD double staining: Kasumi-1, 24 hr
Source text: as §1, §2
HEK293T cells (ATCC) were maintained in DMEM supplemented with 10% FCS. The viability of Kasumi-1 cells and AE9a mouse leukemia cells was assessed in triplicate by trypan blue exclusion. The Kasumi cell line was isolated and characterized by one of the coauthors (S. Nimer) ([Becker et al., 2008]). All cell lines were tested annually for mycoplasma contamination. Only negative mycoplasma cultures were used during the conduct of these experiments.
Apoptosis was analyzed with an Annexin V-APC/7AAD Apoptosis kit (Becton-Dickinson) according to manufacturer’s instructions. To assess the distribution of nuclear DNA content in the cell-cycle analysis, cells were collected, washed in PBS, fixed overnight in 75% ethanol at –20°C, treated with 1% RNase A for at least 15 min at 37°C, and stained with […] propidium iodide. To monitor CD34 expression, the cells were stained with an allophycocyanin-conjugated anti-CD34 antibody (Becton Dickinson). To monitor CD11b expression, the cells were stained with a phycoerythrin-conjugated anti-CD11b antibody (Beckman-Coulter). To monitor C-kit and Mac-1 expression, the cells were stained with allophycocyanin-conjugated anti-C-kit and phycoerythrin-conjugated anti-Mac-1 antibodies (Becton-Dickinson). Cells were sorted with a Becton-Dickinson FACSCalibur, and the data were analyzed with FlowJo software.

Compound | K24 and K43 acetylation of AML1-ETO (AML1-ETO fusion protein) | Deacetylation of specific histone residues ([1]; HEK293T cells, 24 hr) | IC50 ([1]; 24 h, read-out: IC50 for H2BK12/K15 inhibition in cells) [µM] | Acetylation of p53 K382 (acetyl p53K382) | Apoptosis, annexin V/7AAD double staining (Kasumi-1 cells) | Kasumi-1 cell growth (Kasumi-1 cells; trypan-blue exclusion counts) | IC50 ([1]; HEK293T cells, 24 hr, read-out: IC50 for inhibition of H2B acetylation) [µM] | Concentration inhibiting cell proliferation (Kasumi-1 cells; Kasumi-1, trypan-blue exclusion counts) [mM]
O=C(O)c1cc(-c2ccc(F)cc2F)ccc1O [diflunisal] | decreased in a dose-dependent manner | induced deacetylation of specific histone residues, H2AK5, K9, H2BK12/K15, H3K56 | 160 | suppressed acetylation | increased apoptosis in a dose-dependent manner | inhibition of growth |  | 
O=C(O)c1ccccc1O [salicylate, salicylic acid] | decreased in a dose-dependent manner | deacetylation of H2AK5/K9, H2BK12/K15, and H3K56 in a dose-dependent manner |  | decreased acetylation | increased apoptosis |  | 4800 | ≥ 1
